Test results reported in patent US9605064B2, “Methods and compositions for treatment of skin disorders” (AbbVie Biotechnology Ltd, priority 2006, dated 2017).
Marks after values point to notes of the source that are not given here.

Assays:
[1] = tested on: patients with moderate to severe psoriasis; assay: PASI response, open-label extension (OLE) of REVEAL; assay type: in vivo, human
Description: Laboratory parameters and adverse events were also recorded.
The REVEAL study had two independent primary endpoints. The first endpoint was the proportion of patients achieving 75 percent improvement in skin clearance after 16 weeks. The second endpoint was the proportion of patients who lost adequate response through week 52 after stopping treatment with HUMIRA at week 33. Signs of psoriasis were evaluated using the Psoriasis Area and Severity Index (PASI), among other measures. […] At week 52, the start of the OLE period, patients randomized at week 33, as well as patients originally in the placebo group at week 0, were able to enter the OLE period.

[2] = tested on: patients with moderate to severe chronic plaque psoriasis; assay: DLQI, Phase II 12-week placebo-controlled trial with 48-week extension; assay type: in vivo, human; conditions: for Mean change in DLQI from baseline at Week 60: observed values; for DLQI = 0 / DLQI = 1 / DLQI = 2 / DLQI ≧ 3: pooled arms; for DLQI mean change from baseline: baseline PASI ≧10 and DLQI >10
Excerpt: The DLQI is a validated instrument used to measure disease impact on daily function.
The DLQI is a validated instrument used to assess dermatologic-related functional limitations, and was used as the patient related outcomes (PRO) measure. The DLQI consists of ten items and an overall scoring range of 0-30, where higher scores represent greater quality of life impairment and lower scores represent lower quality of life impairment. The DLQI also includes well-established properties of reliability and validity for the DLQI total score in a dermatology setting and measures six subcategories: symptoms and feelings, daily activities, leisure, work/school, personal relationships, and treatment.
Patients who discontinued before the time point were not included in this analysis. Ranges of DLQI scores were evaluated for their correspondence to categories of disease impact and are described below in Table 1.
PROs were assessed using the DLQI. The DLQI is a validated instrument used to assess dermatologic-related functional limitations.

[3] = Week 0 of OLE, n = 233, ITT, LOCF, 40 mg eow
[4] = Week 12 of OLE, n = 233, ITT, LOCF, 40 mg eow
[5] = Week 24 of OLE, n = 233, ITT, LOCF, 40 mg eow
[6] = after 12 months of continuous adalimumab dosing, ITT (233 patients)
[7] = after 18 months, ITT (233 patients)
[8] = PASI 75-99 responders who had DLQI>0 at Week 60
[9] = PASI improvement 50-74 (n = 18), Week 60
[10] = PASI improvement 75-99 (n = 54), Week 60
[11] = PASI improvement 100 (n = 29), Week 60
[12] = PASI improvement <50 (n = 5), Week 60

Adalimumab: a human anti-TNF mAb, described in U.S. Pat. No. 6,090,382 as D2E7 (HUMIRA, Abbott Laboratories)
PASI 75 response rate [1, 3]: 85%
PASI 90 response rate [1, 3]: 84%
PASI 100 response rate [1, 3]: 87%
PASI 75 response rate [1, 4]: 59%
PASI 90 response rate [1, 4]: 60%
PASI 100 response rate [1, 4]: 63%
PASI 75 response rate [1, 5]: 35%
PASI 90 response rate [1, 5]: 33%
PASI 100 response rate [1, 5]: 34%
PASI 75 response rate [1, 6]: 85%
PASI 90 response rate [1, 6]: 59%
PASI 100 response rate [1, 6]: 35%
PASI 75 response rate [1, 7]: 87%
PASI 90 response rate [1, 7]: 63%
PASI 100 response rate [1, 7]: 34%
PASI 75 response rate ([1]; re-randomized to adalimumab at Wk 33, did not lose adequate response, after 24 weeks in OLE): 83%
PASI 75 response rate ([1]; re-randomized to adalimumab at Wk 33, lost adequate response, after 24 weeks in OLE): 55%
PASI 75 response rate ([1]; re-randomized to placebo at Wk 33, did not lose adequate response, Wk 24 of OLE adalimumab): 84%
PASI 75 response rate ([1]; re-randomized to placebo at Wk 33, lost adequate response, Wk 24 of OLE adalimumab): 55%
patients with change from large/extremely large DLQI impact at baseline to no/small impact ([2]; 40 mg eow, week 12): 85%
patients with change from large/extremely large DLQI impact at baseline to no/small impact ([2]; 40 mg eow, week 24): 85%
patients with change from large/extremely large DLQI impact at baseline to no/small impact ([2]; 40 mg eow, week 36): 83%
patients with change from large/extremely large DLQI impact at baseline to no/small impact ([2]; 40 mg eow, week 60): 83%
mean change in DLQI ([2]; 40 mg weekly, Week 12): −11.5*
patients with change from large/extremely large DLQI impact at baseline to no/small impact ([2]; 40 mg weekly, Week 12): 86%
patients with change from large/extremely large DLQI impact at baseline to no/small impact ([2]; 40 mg weekly, week 24): 88%
patients with change from large/extremely large DLQI impact at baseline to no/small impact ([2]; 40 mg weekly, week 36): 91%
patients with change from large/extremely large DLQI impact at baseline to no/small impact ([2]; 40 mg weekly, week 60): 100%
Mean change in DLQI from baseline at Week 60 ([2]; PASI 50-74): −8.8
Mean change in DLQI from baseline at Week 60 ([2]; PASI 75-99): −11.5
embarrassment/self-consciousness because of skin condition [2, 8]: approximately 20%
persistent symptoms of itching, soreness, pain, or stinging of the skin [2, 8]: approximately 50%
Mean change in DLQI from baseline at Week 60 ([2]; PASI 100): −11.1
Mean change in DLQI from baseline at Week 60 ([2]; PASI <50): −6.0
DLQI = 0 [2, 9]: 5 (28) n (%)
DLQI = 1 [2, 9]: 3 (17) n (%)
DLQI = 2 [2, 9]: 3 (17) n (%)
DLQI ≧ 3 [2, 9]: 7 (39) n (%)
DLQI = 0 [2, 10]: 20 (37) n (%)
DLQI = 1 [2, 10]: 19 (35) n (%)
DLQI = 2 [2, 10]: 4 (7) n (%)
DLQI ≧ 3 [2, 10]: 11 (20) n (%)
DLQI = 0 [2, 11]: 23 (79) n (%)
DLQI = 1 [2, 11]: 3 (10) n (%)
DLQI = 2 [2, 11]: 3 (10) n (%)
DLQI ≧ 3 [2, 11]: 0 (0) n (%)
DLQI = 0 [2, 12]: 0 (0) n (%)
DLQI = 1 [2, 12]: 1 (20.0) n (%)
DLQI = 2 [2, 12]: 2 (40) n (%)
DLQI ≧ 3 [2, 12]: 2 (40) n (%)
mean change in DLQI ([2]; adalimumab-treated patients): ≥ 10 points
DLQI mean change from baseline ([2]; 40 mg eow, Week 12): −15
DLQI mean change from baseline ([2]; 40 mg eow, Week 24): −14
DLQI mean change from baseline ([2]; 40 mg eow, Week 36): −15
DLQI mean change from baseline ([2]; 40 mg eow, Week 60): −15
DLQI mean change from baseline ([2]; 40 mg weekly, Week 12): −16
DLQI mean change from baseline ([2]; 40 mg weekly, Week 24): −17
DLQI mean change from baseline ([2]; 40 mg weekly, Week 36): −18
DLQI mean change from baseline ([2]; 40 mg weekly, Week 60): −17
DLQI mean change from baseline ([2]; placebo/adalimumab 40 mg eow, Week 24): −12
DLQI mean change from baseline ([2]; placebo/adalimumab 40 mg eow, Week 36): −14
DLQI mean change from baseline ([2]; placebo/adalimumab 40 mg eow, Week 60): −12
